Laboratory results published in patent publication US20260274853A1, “BIFUNCTIONAL COMPOUNDS CONTAINING PYRIMIDINE DERIVATIVES FOR DEGRADING CYCLIN-DEPENDENT KINASE 2 VIA UBIQUITIN PROTEASOME PATHWAY” (NIKANG THERAPEUTICS, INC., priority 2022, published 2026).

What was measured:
CDK2 [1] = molecular target: T1, CDK2 (Homo sapiens, UniProt P24941); test: CDK2 HTRF assay: cellular endogenous CDK2 level in OVCAR3 cells; format: cell-based; conditions: 24 hours compound treatment; for DC50: read-out: DC50 (half maximal degradation concentration of CDK2)
T1 construct: High-Throughput Measurement of Cellular Endogenous CDK2; endogenous in cells; host or cells: OVCAR3
Method: Effects of compounds on cellular CDK2 level can be monitored by a high-throughput HTRF assay or traditional Western Blot assay.
To determine half maximal degradation concentration (DC50) values of compounds, cellular CDK2 level was measured in 96-well format using HTRF total CDK2 cellular kit (Cat #64CDK2TPEG) from Cisbio.
On Day 1, OVCAR3 cells were seeded into 96-well tissue-culture treated plates at 20,000 cells/well in 200 μL and incubated overnight at 37° C. in CO2 atmosphere. On Day 2 cells were treated with compounds at concentration ranging from 0.3 to 10,000 nM using HP D300 digital dispenser. 24 hours after compound treatment, cell culture media was removed by flicking the plate and tapping the plate against clean paper towel. Immediately 30 μL 1× lysis buffer was supplemented from the kit and the plate was incubated at room temperature on shaker for 30 min. After homogenization by pipetting up and down, 8 μL cell lysate from 96-well cell culture plate was transferred to 384-well small volume white detection plate. 2 μL premixed detection solution was added and the plate was covered with sealer. To prepare the detection solution, d2 conjugated-CDK2 antibody and Eu-cryptate conjugated CDK2 antibody were diluted into detection buffer following manufacturer's instruction. Detection plates were incubated overnight at room temperature and read on ClarioStar (BMG Labtech) in TR-FRET mode (665 nM and 620 nM). The TR-FRET ratio (665 nM/620 nM) was plotted against the compound concentration and normalized to DMSO controls. Half maximal degradation concentration (DC50) values were calculated with a four-parameter logistic fit using GraphPad Prism (version 8; La Jolla, CA).
In the table below, A indicates a DC50 of less than 0.1 μM; B indicates a DC50 of greater than or equal to 0.1 μM but less than 0.5 μM; C indicates a DC50 of greater than or equal to 0.5 μM but less than 1 μM; and D indicates a DC50 of greater than or equal to 1 μM but less than 10 μM.

CDK2 [2] = molecular target: T1, CDK2; test: Inhibition of CDK2: phospho-Rb (S807/811) HTRF measurement in OVCAR3 cells; format: cell-based; conditions: 24 h compound treatment, read-out: pRb (nM), IC50 in pRB(S807/811) assay
Method: Phosphorylation of RB protein at S807/811 were measured using HTRF phospho-RB cellular kits (Cat #64RBS807PEG) from Cisbio.
On Day 1, OVCAR3 (dependent on CDK2) cells were seeded into 96-well tissue-culture treated plates at 20,000 cells/well in 200 μL and incubated overnight at 37° C. in CO2 atmosphere. On Day 2, the cells were treated with test compounds at concentrations from 0.3 to 10,000 nM using HP D300 digital dispenser. Twenty-four hours after compound treatment, cell culture media was removed by flicking the plate and tapping the plate against clean paper towel. Immediately 30 μL 1× lysis buffer was supplemented from the kit and the plate was incubated at room temperature on shaker for 30 min. After homogenization by pipetting up and down, 8 μL cell lysate from 96-well cell culture plate was transferred to 384-well small volume white detection plate. 2 μL premixed detection solution was added and the plate was covered with sealer. To prepare the detection solution, d2 conjugated-phospho-RB antibody and Eu-cryptate conjugated phosphor-RB antibody were diluted into detection buffer following manufacturer's instruction. Detection plates were incubated for 4 h at room temperature and read on ClarioStar (BMG Labtech) in TR-FRET mode (665 nM and 620 nM). The TR-FRET ratio (665 nM/620 nM) was plotted against the compound concentration and normalized to DMSO controls. Half maximal inhibition concentration (IC50) values are calculated with a four-parameter logistic fit using GraphPad Prism (version 8; La Jolla, CA).
In the table below, A indicates a IC50 of less than 0.1 μM; B indicates a IC50 of greater than or equal to 0.1 μM but less than 0.5 μM; C indicates a IC50 of greater than or equal to 0.5 μM but less than 1 μM; and D indicates a […] of greater than or equal to 1 μM but less than 10 μM.

| SMILES | DC50 (CDK2 [1]) [nM] | IC50 (CDK2 [2]) [nM] | DC50 (half maximal degradation concentration of CDK2) (CDK2 [1]) |
| --- | --- | --- | --- |
| Cn1nc(N2CCC(=O)NC2=O)c2ccc(C3CCN(Cc4cccc(S(=O)(=O)N5CC[C@H](Nc6ncc(C(F)(F)F)c(-c7cnn(CC(F)(F)F)c7)n6)[C@H](F)C5)c4)CC3)cc21 (racemic) [Example 6, Rac-1-(6-(1-(3-(((3R,4S)-3-fluoro-4-((4-(1-(2,2,2-trifluoroethyl)-1H-pyrazol-4-yl)-5-(trifluoromethyl)-pyrimidin-2-yl)amino)piperidin-1-yl)sulfonyl)-benzyl)piperidin-4-yl)-1-methyl-1H-indazol-3-yl)dihydro-pyrimidine-2,4(1H,3H)-dione] | < 100 | < 100 |  |
| O=C1CCC(c2ccc(N3CCN(Cc4cccc(S(=O)(=O)N5CCC(Nc6ncc(C(F)(F)F)c(-c7cnn(CC(F)(F)F)c7)n6)[C@H](F)C5)c4)CC3)cc2)C(=O)N1 (mixture of isomers) [Example 19, Rac-3-(4-(4-(3-(((3R,4S)-3-fluoro-4-((4-(1-(2,2,2-trifluoroethyl)-1H-pyrazol-4-yl)-5-(trifluoromethyl)pyrimidin-2-yl)-amino)piperidin-1-yl)sulfonyl)benzyl)-piperazin-1-yl)-phenyl)piperidine-2,6-dione] | < 100 | < 100 |  |
| O=C1CCN(c2ccc(N3CCN(Cc4cccc(S(=O)(=O)N5CC[C@@H](Nc6ncc(C(F)(F)F)c(-c7cnn(CC(F)(F)F)c7)n6)[C@@H](F)C5)c4)CC3)cc2)C(=O)N1 (racemic) [Example 28, Rac-1-(4-(4-(3-(((3R,4S)-3-fluoro-4-((4-(1-(2,2,2-trifluoroethyl)-1H-pyrazol-4-yl)-5-(trifluoromethyl)-pyrimidin-2-yl)amino)piperidin-1-yl)sulfonyl)-benzyl)piperazin-1-yl)phenyl)dihydro-pyrimidine-2,4(1H,3H)-dione] | < 100 | 100 to 500 |  |
| O=C1CCC(c2ccc(N3CCN(Cc4cccc(S(=O)(=O)N5CCC(Nc6ncc(C(F)(F)F)c(-c7cnn(CC(F)(F)F)c7)n6)[C@H](F)C5)c4)CC3)c(F)c2)C(=O)N1 (mixture of isomers) [Example 29, Rac-3-(3-fluoro-4-(4-(3-(((3R,4S)-3-fluoro-4-((4-(1-(2,2,2-trifluoroethyl)-1H-pyrazol-4-yl)-5-(trifluoromethyl)-pyrimidin-2-yl)amino)piperidin-1-yl)-sulfonyl)benzyl)piperazin-1-yl)phenyl)-piperidine-2,6-dione] | < 100 | < 100 |  |
| O=C1CCC(N2C(=O)c3cc(F)c(N4CCN(Cc5cccc(S(=O)(=O)N6CC[C@H](Nc7ncc(C(F)(F)F)c(-c8cnn(CC(F)(F)F)c8)n7)[C@H](F)C6)c5)CC4)cc3C2=O)C(=O)N1 (mixture of isomers) [Example 32, Rac-2-(2,6-dioxopiperidin-3-yl)-5-fluoro-6-(4-(3-(((3R,4S)-3-fluoro-4-((4-(1-(2,2,2-trifluoroethyl)-1H-pyrazol-4-yl)-5-(trifluoromethyl)-pyrimidin-2-yl)amino)piperidin-1-yl)sulfonyl)-benzyl)piperazin-1-yl)-isoindoline-1,3-dione] | 100 to 500 | 1000 to 10000 |  |
| Cn1nc(N2CCC(=O)NC2=O)c2ccc(C3CCN(Cc4cccc(S(=O)(=O)N5CC[C@H](Nc6ncc(C(F)(F)F)c(-c7cnn(CC(C)(C)O)c7)n6)[C@H](F)C5)c4)CC3)cc21 (racemic) [Example 70, Rac-1-(6-(1-(3-(((3R,4S)-3-fluoro-4-((4-(1-(2-hydroxy-2-methylpropyl)-1H-pyrazol-4-yl)-5-(trifluoromethyl)-pyrimidin-2-yl)amino)piperidin-1-yl)-sulfonyl)benzyl)piperidin-4-yl)-1-methyl-1H-indazol-3-yl)dihydro-pyrimidine-2,4(1H,3H)-dione] | < 100 | < 100 |  |
| O=C1CCC(N2C(=O)c3cc(F)c(N4CCN(Cc5cccc(S(=O)(=O)N6CCC(Nc7ncc(C(F)(F)F)c(-c8cnn(CC(F)(F)F)c8)n7)CC6)c5)CC4)cc3C2=O)C(=O)N1 (centres unmarked) [Example 1, 2-(2,6-dioxopiperidin-3-yl)-5-fluoro-6-(4-(3-((4-((4-(1-(2,2,2-trifluoroethyl)-1H-pyrazol-4-yl)-5-(trifluoromethyl)pyrimidin-2-yl)amino)piperidin-1-yl)sulfonyl)benzyl)piperazin-1-yl)isoindoline-1,3-dione] | 100 to 500 | 100 to 500 |  |
| O=C1CCC(c2ccc(N3CCN(Cc4cccc(S(=O)(=O)N5CCC(Nc6ncc(C(F)(F)F)c(-c7cnn(CC(F)(F)F)c7)n6)CC5)c4)CC3)cc2)C(=O)N1 (centres unmarked) [Example 2, 3-(4-(4-(3-((4-((4-(1-(2,2,2-trifluoro-ethyl)-1H-pyrazol-4-yl)-5-(trifluoro-methyl)pyrimidin-2-yl)amino)piperidin-1-yl)sulfonyl)benzyl)piperazin-1-yl)-phenyl)piperidine-2,6-dione] | < 100 | < 100 |  |
| O=C1CCC(N2Cc3cc(C4CN(Cc5cccc(S(=O)(=O)N6CCC(Nc7ncc(C(F)(F)F)c(-c8cnn(CC(F)(F)F)c8)n7)CC6)c5)C4)ccc3C2=O)C(=O)N1 (centres unmarked) [Example 3, 3-(1-oxo-5-(1-(3-((4-((4-(1-(2,2,2-trifluoroethyl)-1H-pyrazol-4-yl)-5-(trifluoromethyl)pyrimidin-2-yl)-amino)-piperidin-1-yl)sulfonyl)-benzyl)azetidin-3-yl)isoindolin-2-yl)piperidine-2,6-dione] | < 100 | < 100 |  |
| Cn1nc(N2CCC(=O)NC2=O)c2ccc(C3CCN(Cc4cccc(S(=O)(=O)N5CCC(Nc6ncc(C(F)(F)F)c(-c7cnn(CC(F)(F)F)c7)n6)CC5)c4)CC3)cc21 [Example 4, 1-(1-methyl-6-(1-(3-((4-((4-(1-(2,2,2-trifluoroethyl)-1H-pyrazol-4-yl)-5-(trifluoromethyl)pyrimidin-2-yl)amino)-piperidin-1-yl)sulfonyl)-benzyl)-piperidin-4-yl)-1H-indazol-3-yl)dihydro-pyrimidine-2,4(1H,3H)-dione] | < 100 | < 100 |  |
| Cn1cc(-c2nc(NC3CCN(S(=O)(=O)c4cccc(CN5CCN(c6cc7c(cc6F)C(=O)N(C6CCC(=O)NC6=O)C7=O)CC5)c4)CC3)ncc2C(F)(F)F)cn1 (centres unmarked) [Example 5, 2-(2,6-dioxopiperidin-3-yl)-5-fluoro-6-(4-(3-((4-((4-(1-methyl-1H-pyrazol-4-yl)-5-(trifluoromethyl)pyrimidin-2-yl)-amino)piperidin-1-yl)sulfonyl)-benzyl)-piperazin-1-yl)isoindoline-1,3-dione] | 100 to 500 | < 100 |  |
| Cn1c(=O)n(C2CCC(=O)NC2=O)c2cccc(C3CCN(Cc4cccc(S(=O)(=O)N5CCC(Nc6ncc(C(F)(F)F)c(-c7cnn(CC(F)(F)F)c7)n6)CC5)c4)CC3)c21 (centres unmarked) [Example 8, 3-(3-methyl-2-oxo-4-(1-(3-((4-((4-(1-(2,2,2-trifluoroethyl)-1H-pyrazol-4-yl)-5-(trifluoromethyl)pyrimidin-2-yl)amino)-piperidin-1-yl)sulfonyl)-benzyl)-piperidin-4-yl)-2,3-dihydro-1H-benzo[d]-imidazol-1-yl)piperidine-2,6-dione] | < 100 | < 100 |  |
| O=C1CCC(N2C(=O)c3cc(F)c(N4CCN(Cc5cccc(S(=O)(=O)N6CCC(Nc7ncc(Cl)c(-c8cnn(CC(F)(F)F)c8)n7)CC6)c5)CC4)cc3C2=O)C(=O)N1 (centres unmarked) [Example 9, 5-(4-(3-((4-((5-chloro-4-(1-(2,2,2-trifluoroethyl)-1H-pyrazol-4-yl)-pyrimidin-2-yl)amino)piperidin-1-yl)-sulfonyl)benzyl)piperazin-1-yl)-2-(2,6-dioxopiperidin-3-yl)-6-fluoro-isoindoline-1,3-dione] |  | 1000 to 10000 | no curve |
